Values joined by “and” are separate entries in the source; they are usually repeats but may differ in a detail not shown here. Equal values may be shown once. “Also recorded” adds a separate entry of the source.
Assays:
NCI-H460/R [1] = assay: MTT assay, reversal of DOX resistance in NCI-H460/R cells; format: cell-based, human; conditions: for Relative Reversal of DOX resistance: IC50 DOX alone / IC50 in combination
Protocol: (§1) The metabolic activity of viable cells was measured by MTT assay. Cells grown in 25 cm^2 tissue flasks were trypsinized, seeded into flat-bottomed 96-well tissue culture plates, and incubated overnight. Subsequently, the cells were treated with increasing concentrations of Si306, pro-Si306, and dasatinib (1–25 μM), as well as with Si221 and pro-Si221 (2.5–50 μM) for 72 h. In addition, the combined effects of Si306, pro-Si306, and pro-Si221with DOX as well as with PTX were studied in NCI-H460/R and DLD1-TxR cells, respectively. In simultaneous treatments that lasted 72 h in NCI-H460/R and DLD1-TxR cells, two concentrations of Si306, pro-Si306, and pro-Si221 (0.2 μM and 0.5 μM) were combined with increasing concentrations of DOX and PTX (0.1–2 μM). After treatment, MTT was added to each well at a final concentration of 0.2 mg/mL for 3 h. Then, formazan produced in cells with intact/viable mitochondria was dissolved in 200 μL of DMSO, and the absorbance was measured at 570 nm on a Multiskan Sky Microplate Spectrophotometer (ThermoFisher Scientific, United States). The IC50 value is defined as the concentration of a drug that decreases cell viability by 50% and was calculated by nonlinear regression analysis using GraphPad Prism 6.0 for Windows (La Jolla, CA, USA). Relative reversal was calculated as a relation between the IC50 values of DOX and PTX alone obtained in NCI-H460/R and DLD1-TxR cells, respectively and the IC50 values of DOX and PTX in combination with Pro-Si306 and Pro-Si221.

[2] = system: NCI-H460, NCI-H460/R, DLD1, DLD1-TxR; assay: MTT cell viability assay, two sensitive/MDR cancer cell line pairs; format: cell-based; conditions: Homo sapiens, summary over the four cell lines, 72 h
Protocol: as §1

DLD1-TxR [3] = assay: MTT cell viability assay, DLD1-TxR; format: cell-based; conditions: Homo sapiens, DLD1-TxR (MDR), 72 h, read-out: Decrease in cell viability, IC50
Protocol: as §1

P-gp [4] = molecular target: T1, P-gp (Homo sapiens, UniProt P08183); assay: Rho 123 accumulation assay (P-gp activity) in NCI-H460/R cells; conditions: for P-gp inhibition by Rho 123 intracellular accumulation / IC50 / kinetics of P-gp inhibition (Rho123 accumulation): NCI-H460/R; for P-gp inhibition by Rho 123 intracellular accumulation: 10 µM, 30-min treatment, compared with Dex-VER; for IC50: IC50 for P-gp inhibition, Rho123 accumulation, 30 min; for kinetics of P-gp inhibition (Rho123 accumulation): 24-, 48-, 96-, 168-h treatments, 10 µM pro-Si306, pro-Si221, 5 and 10 nM TQ
Protocol: (§3) The accumulation of fluorescent P-gp substrate Rho 123 was analyzed by flow cytometry. The intensity of fluorescence was proportional to Rho 123 accumulation in the cell. […] NCI-H460 and DLD1 cells were used as a positive control for Rho 123 accumulation. All cell lines were seeded in adherent 6-well plates and grown overnight. In simultaneous treatment that lasted 30 min, 5 μM Rho 123 was applied along with 10 μM of Si306, pro-Si306, Si221, pro-Si221, dasatinib, and Dex-VER. […] Samples were incubated for 30 min at 37 °C in 5% CO2. […] At the end of the accumulation period, the cells were trypsinized, pelleted by centrifugation, washed with PBS, and placed in ice-cold PBS. The samples were kept on ice in the dark until analysis on a CyFlow Space Partec flow cytometer (Sysmex Partec GmbH, Görlitz, Germany). The fluorescence of Rho 123 was detected on fluorescence channel 1 (FL1-H) at 530 nm. Three independent experiments were performed for each experimental setting. A minimum of 10,000 events was assayed for each sample, and the obtained results were analyzed using Summit Dako Software (ver. 4.3, Fort Collins, CO, USA).

NCI-H460/R [5] = assay: MTT cell viability assay, NCI-H460/R; format: cell-based, human; conditions: for IC50: Homo sapiens, NCI-H460/R (MDR), MTT, 72 h, read-out: Decrease in cell viability, IC50; for fold lower IC50 in MDR NCI-H460/R than in sensitive NCI-H460 cells: NCI-H460/R vs NCI-H460, MTT
Protocol: as §1

DLD1 = assay: MTT cell viability assay, DLD1; format: cell-based; conditions: Homo sapiens, DLD-1, 72 h, read-out: Decrease in cell viability, IC50
Protocol: as §1

NCI-H460 = assay: MTT cell viability assay, NCI-H460; format: cell-based; conditions: Homo sapiens, 72 h, read-out: Decrease in cell viability, IC50
Protocol: as §1

DLD1-TxR [6] = assay: MTT assay, reversal of PTX resistance in DLD1-TxR cells; format: cell-based, human; conditions: for Relative Reversal of PTX resistance: IC50 PTX alone / IC50 in combination
Protocol: as §1

P-gp expression [7] = assay: Flow cytometric analysis of P-gp expression in DLD1-TxR cells; format: cell-based, human; conditions: 48-h treatment, Si306, pro-Si306 5 and 10 µM, pro-Si221 1 and 2 µM, TQ 5 and 10 nM
Protocol: (§2) The P-gp expression level in NCI-H460/R and DLD1-TxR was measured by flow cytometry. […] After 48 h, cells were collected by trypsinization, washed in PBS, and then directly immuno stained by FITC-conjugated anti-P-gp antibody according to the manufacturer’s protocol.

P-gp [8] = molecular target: T1, P-gp; assay: Rho 123 accumulation assay (P-gp activity) in DLD1-TxR cells; conditions: for P-gp inhibition by Rho 123 intracellular accumulation / kinetics of P-gp inhibition (Rho123 accumulation) / IC50: DLD1-TxR; for P-gp inhibition by Rho 123 intracellular accumulation: 10 µM, 30-min treatment, compared with Dex-VER; for kinetics of P-gp inhibition (Rho123 accumulation): 24-, 48-, 96-, 168-h treatments, 10 µM pro-Si306, 1 and 2 µM pro-Si221, 5 and 10 nM TQ; for IC50: IC50 for P-gp inhibition, Rho123 accumulation, 30 min
Protocol: as §3

P-gp expression [9] = assay: Flow cytometric analysis of P-gp expression in NCI-H460/R cells; format: cell-based, human; conditions: 48-h treatment, Si306, pro-Si306 5 and 10 µM, pro-Si221 1 and 2 µM, TQ 5 and 10 nM
Protocol: as §2

P-gp [10] = molecular target: T1, P-gp; assay: P-gp ATPase activity assay (Pgp-Glo); format: biochemical; design: purchased Promega, Madison, WI, USA; conditions: 5 µM and 20 µM; verapamil positive control
Protocol: P-gp function depends on ATP hydrolysis energy, and compounds that interact with P-gp can stimulate or inhibit its ATPase activity. P-gp ATPase activity is usually stimulated by its substrates. The Pgp-GloTM assay system detects a compound’s effect on recombinant human P-gp in a cell membrane fraction. P-gp ATPase activity was measured using the luminescent Pgp-Glo^TM assay kit according to manufacturer’s instructions. Briefly, ATP was first incubated with P-gp; then, the P-gp ATPase reaction was stopped, and the remaining un-metabolized ATP was detected as a luciferase-generated luminescent signal. P-gp-dependent decreases in luminescence reflect ATP consumption by P-gp; thus, the greater the decrease in signal, the higher the P-gp activity. […] Na3VO4 is a noncompetitive inhibitor of P-gp ATPase activity. The difference in the luminescent signal, expressed as relative light units (RLU), between Na3VO4-treated samples and untreated samples represents the basal P-gp ATPase activity (ΔRLU basal). The difference in the luminescent signal between Na3VO4-treated samples and samples treated with the tested compounds represents P-gp ATPase activity in the presence of the tested compounds. […] The luminescence of samples treated with 5 μM and 20 μM of Si306, pro-Si306, and pro-Si221 was measured using a luminometer microplate reader (CHAMELEONTMV, Hidex, Turku, Finland).

T1 sequence (P08183 whole entry): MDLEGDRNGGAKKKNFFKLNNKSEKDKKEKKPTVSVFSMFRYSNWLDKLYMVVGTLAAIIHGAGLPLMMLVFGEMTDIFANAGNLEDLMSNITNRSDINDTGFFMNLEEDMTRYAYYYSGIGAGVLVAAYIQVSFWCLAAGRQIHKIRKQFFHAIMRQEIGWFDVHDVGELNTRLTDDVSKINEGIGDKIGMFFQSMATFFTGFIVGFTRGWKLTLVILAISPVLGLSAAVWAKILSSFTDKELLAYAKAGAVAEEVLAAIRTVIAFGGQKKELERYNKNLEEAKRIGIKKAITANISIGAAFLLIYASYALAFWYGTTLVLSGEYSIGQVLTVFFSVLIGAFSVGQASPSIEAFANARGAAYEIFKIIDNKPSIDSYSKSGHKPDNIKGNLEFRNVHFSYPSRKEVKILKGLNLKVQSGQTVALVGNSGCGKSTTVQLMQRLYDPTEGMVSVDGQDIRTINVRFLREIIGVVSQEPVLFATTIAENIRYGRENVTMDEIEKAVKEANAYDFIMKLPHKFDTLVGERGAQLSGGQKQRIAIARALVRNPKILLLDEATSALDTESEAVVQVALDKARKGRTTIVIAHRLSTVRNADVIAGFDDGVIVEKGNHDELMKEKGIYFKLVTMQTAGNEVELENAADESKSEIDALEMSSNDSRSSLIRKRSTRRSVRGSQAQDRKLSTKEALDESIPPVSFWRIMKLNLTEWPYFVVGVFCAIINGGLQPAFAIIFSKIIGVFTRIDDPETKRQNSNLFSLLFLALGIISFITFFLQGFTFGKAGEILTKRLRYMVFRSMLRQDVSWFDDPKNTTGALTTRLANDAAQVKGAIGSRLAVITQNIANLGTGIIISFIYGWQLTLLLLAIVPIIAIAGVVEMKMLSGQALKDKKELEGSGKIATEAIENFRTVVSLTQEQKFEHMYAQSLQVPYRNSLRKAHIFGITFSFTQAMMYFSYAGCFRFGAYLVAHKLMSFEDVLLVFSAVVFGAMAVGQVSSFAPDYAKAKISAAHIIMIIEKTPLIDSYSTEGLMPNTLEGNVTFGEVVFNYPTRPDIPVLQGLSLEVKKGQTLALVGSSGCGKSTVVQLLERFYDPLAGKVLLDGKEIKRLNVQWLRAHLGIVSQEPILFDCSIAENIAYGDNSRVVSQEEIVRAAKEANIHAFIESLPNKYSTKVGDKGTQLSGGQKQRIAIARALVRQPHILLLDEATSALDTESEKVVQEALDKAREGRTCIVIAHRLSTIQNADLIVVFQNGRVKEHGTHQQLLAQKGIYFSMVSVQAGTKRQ

SMILES	IC50 [2] [µM]	IC50 (DLD1-TxR [3]) [µM]	P-gp inhibition by Rho 123 intracellular accumulation (P-gp [4])	IC50 (NCI-H460/R [5]) [µM]	IC50 (DLD1) [µM]	IC50 (NCI-H460) [µM]	effect on P-gp expression (protein level) (P-gp expression [7])	P-gp inhibition by Rho 123 intracellular accumulation (P-gp [8])	kinetics of P-gp inhibition (Rho123 accumulation) (P-gp [8])	IC50 (P-gp [8])	effect on P-gp expression (protein level) (P-gp expression [9])	IC50 (P-gp [4])	kinetics of P-gp inhibition (Rho123 accumulation) (P-gp [4])	effect on ATPase activity of P-gp (P-gp [10])	further results
COc1cccc2c1C(=O)c1c(O)c3c(c(O)c1C2=O)C[C@@](O)(C(=O)CO)C[C@@H]3O[C@H]1C[C@H](N)[C@H](O)[C@H](C)O1 [DOX, doxorubicin, reference compound]	–	–	–	–	–	–	–	–	–	–	–	–	–	–	IC50 (NCI-H460/R [1]; Homo sapiens, MTT, 72 h, read-out: IC50 of DOX alone): 0.905 ± 0.0444 µM
Cc1nc(Nc2ncc(C(=O)Nc3c(C)cccc3Cl)s2)cc(N2CCN(CCO)CC2)n1 [Dasatinib, reference compound]	< 10	2.9 ± 0.223	did not show potential to inhibit P-gp	6.88 ± 0.605	3.24 ± 0.411	3.93 ± 0.295	–	–	–	–	–	–	–	–	–
CC(=O)O[C@H]1C(=O)[C@@]2(C)[C@H]([C@H](OC(=O)c3ccccc3)[C@]3(O)C[C@H](OC(=O)[C@H](O)[C@@H](NC(=O)c4ccccc4)c4ccccc4)C(C)=C1C3(C)C)[C@]1(OC(C)=O)CO[C@@H]1C[C@@H]2O [PTX, paclitaxel, reference compound]	–	–	–	–	–	–	–	–	–	–	–	–	–	–	IC50 (DLD1-TxR [6]; Homo sapiens, MTT, 72 h, read-out: IC50 of PTX alone): 1.05 ± 0.115 µM
CN1CCN(CCOC(=O)N(Cc2ccccc2Cl)c2ncnc3c2cnn3CC(Cl)c2ccc(Br)cc2)CC1 (stereo not drawn) [Pro-Si221]	< 10	5.7 ± 0.543	considerably more potent than that observed with Dex-VER	5.14 ± 0.573	9.8 ± 1.15	4.27 ± 0.509	tendency to decrease the P-gp expression	considerably more potent than that observed with Dex-VER	decline until 96 h when it reached stable P-gp inhibition	669 ± 61 nM	less pronounced effect on the increase in P-gp expression	612 ± 72 nM	continued to decrease until 48 h when it reached stability and was sustained even after 168 h	potential to inhibit the ATPase activity of P-gp; also recorded: highest inhibitory effect on ATPase activity	Relative Reversal of PTX resistance (DLD1-TxR [6]; SFK inhibitor 0.2 µM): 2.0; Relative Reversal of PTX resistance (DLD1-TxR [6]; SFK inhibitor 0.5 µM): 3.2; inhibition at 30 min, 1 µM (P-gp [8]; human, DLD1-TxR cells, probe Rho 123 (5 µM)): 100%; inhibition at 30 min, 1 µM (P-gp [4]; human, NCI-H460/R cells, probe Rho 123 (5 µM)): 100%; Relative Reversal of DOX resistance (NCI-H460/R [1]; SFK inhibitor 0.2 µM): 1.8; Relative Reversal of DOX resistance (NCI-H460/R [1]; SFK inhibitor 0.5 µM): 7.1
CN1CCN(CCOC(=O)N(c2cccc(Br)c2)c2nc(SCCN3CCOCC3)nc3c2cnn3CC(Cl)c2ccccc2)CC1 (stereo not drawn) [Pro-Si306]	< 10	1.87 ± 0.128	considerably more potent than that observed with Dex-VER	0.897 ± 0.102	2.45 ± 0.346	2.41 ± 0.376	tendency to decrease the P-gp expression	considerably more potent than that observed with Dex-VER	reached stability after 96 h	3000 nM and 2950 nM	less pronounced effect on the increase in P-gp expression	6200 nM and 6170 nM	reached stability after 96 h	potential to inhibit the ATPase activity of P-gp	Relative Reversal of PTX resistance (DLD1-TxR [6]; SFK inhibitor 0.2 µM): 1.5; Relative Reversal of PTX resistance (DLD1-TxR [6]; SFK inhibitor 0.5 µM): 2.5; fold lower IC50 in MDR NCI-H460/R than in sensitive NCI-H460 cells (NCI-H460/R [5]): more than 2 fold; Relative Reversal of DOX resistance (NCI-H460/R [1]; SFK inhibitor 0.2 µM): 3.2; Relative Reversal of DOX resistance (NCI-H460/R [1]; SFK inhibitor 0.5 µM): 10.2
Clc1ccccc1CNc1ncnc2c1cnn2CC(Cl)c1ccc(Br)cc1 (stereo not drawn) [Si221]	–	11.6 ± 1.29	did not modulate the activity of P-gp	18.1 ± 2.08	34.1 ± 2.32	14.6 ± 1.48	–	did not modulate the activity of P-gp	–	–	–	–	–	–	–
ClC(Cn1ncc2c(Nc3cccc(Br)c3)nc(SCCN3CCOCC3)nc21)c1ccccc1 (stereo not drawn) [Si306]	< 10	2.56 ± 0.183	considerably more potent than that observed with Dex-VER	1.89 ± 0.184	3.93 ± 0.679	6.24 ± 0.685	tendency to decrease the P-gp expression	considerably more potent than that observed with Dex-VER	–	6400 nM and 6440 nM	significantly increased P-gp expression	13300 nM	–	potential to inhibit the ATPase activity of P-gp	fold lower IC50 in MDR NCI-H460/R than in sensitive NCI-H460 cells (NCI-H460/R [5]): more than 2 fold
COc1cc2c(cc1OC)CN(CCc1ccc(NC(=O)c3cc(OC)c(OC)cc3NC(=O)c3cnc4ccccc4c3)cc1)CC2 [TQ, tariquidar, reference compound]	–	–	–	–	–	–	increased the expression of P-gp	–	reached stable P-gp inhibition after 48 h that was sustained until 168 h	–	increased the expression of P-gp	–	reached stable P-gp inhibition after 48 h that was sustained until 168 h	–	IC50 (P-gp [8]; TQ values in nM (footnote a)): 0.925 ± 0.155 nM; IC50 (P-gp [4]; TQ values in nM (footnote a)): 1.07 ± 0.174 nM
